{
  "source": "patent US5340800A",
  "about": "“Peptide medicaments for the treatment of disease” (priority 1992, dated 1994)",
  "system": "polymorphonuclear leukocyte adhesion to TNF activated endothelial cells",
  "assay_type": "cell-based, human",
  "settings": "for Average % Change of PMN Adhesion to TNF Activated ECs: average over PMN donors (# donors in parentheses)",
  "outline": "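Human leukocytes were isolated on Ficoll-Hypaque and labelled for 15 min with 111In-oxide or 51Cr. They were added to TNF-activated HUVEC monolayers (≤5th passage, fibronectin-coated, washed with RPMI/1% FCS) for 30 min at 37 °C, 5% CO2. Adherent radioactivity was counted in quadruplicate, with basal binding to non-activated endothelium as control.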",
  "note": "Where “and” joins values, the source holds several entries; their conditions need not be identical. Identical values can stand only once. Like-named read-outs stand apart in the source and are kept apart here. No end group written: not given here.",
  "data": [
    {"sequence": "IGWRNVTRLLVFATDDGFHFAGDGKLGAI [Peptide 4-29, NH2 --Ile--Gly--Trp--Arg--Asn--Val--Thr--Arg--Leu--Leu--Val--Phe--Ala--Thr--Asp--Asp--Gly--Phe--His--Phe--Ala--Gly--Asp--Gly--Lys--Leu--Gly--Ala--Ile--COOH]", "values": [
      {"measurement": "activity of the peptide after storage for different times at 4° C.", "result": "maintained"},
      {"measurement": "concentration of peak inhibitory activity in the PMN adhesion assay", "result": "10^-5 to 10^-6 M and 10^-5 M"},
      {"measurement": "inhibitory activity in the PMN adhesion assay (in words)", "result": "significant inhibitory activity"},
      {"measurement": "Average % Change of PMN Adhesion to TNF Activated ECs", "setting": "10^-4 M", "result": -30, "unit": "%"},
      {"measurement": "Percent Change in PMN Adhesion to TNF Activated ECs", "setting": "10^-4 M, donor 108, peptide frozen", "result": -16, "unit": "%"},
      {"measurement": "Percent Change in PMN Adhesion to TNF Activated ECs", "setting": "10^-4 M, donor 272, peptide fresh (second line of donor 272 fresh, last line of table)", "result": "+53%"},
      {"measurement": "Average % Change of PMN Adhesion to TNF Activated ECs", "setting": "10^-5 M", "result": -65, "unit": "%"},
      {"measurement": "Percent Change in PMN Adhesion to TNF Activated ECs", "setting": "10^-5 M, donor 108, peptide frozen", "result": -63, "unit": "%"},
      {"measurement": "Average % Change of PMN Adhesion to TNF Activated ECs", "setting": "10^-6 M", "result": -48, "unit": "%"},
      {"measurement": "Percent Change in PMN Adhesion to TNF Activated ECs", "setting": "10^-6 M, donor 100, peptide frozen", "result": -68, "unit": "%"},
      {"measurement": "Percent Change in PMN Adhesion to TNF Activated ECs", "setting": "10^-6 M, donor 272, peptide fresh (second line of donor 272 fresh, last line of table)", "result": -41, "unit": "%"},
      {"measurement": "Percent Change in PMN Adhesion to TNF Activated ECs", "setting": "10^-6 M, donor 475, peptide fresh", "result": -76, "unit": "%"},
      {"measurement": "Average % Change of PMN Adhesion to TNF Activated ECs", "setting": "10^-7 M", "result": "+3%"},
      {"measurement": "Percent Change in PMN Adhesion to TNF Activated ECs", "setting": "10^-7 M, donor 121, peptide frozen", "result": "+3%"},
      {"measurement": "Percent Change in PMN Adhesion to TNF Activated ECs", "setting": "10^-7 M, donor 155, peptide fresh", "result": "+1%"},
      {"measurement": "Percent Change in PMN Adhesion to TNF Activated ECs", "setting": "10^-7 M, donor 272, peptide fresh (second line of donor 272 fresh, last line of table)", "result": "+42%"},
      {"measurement": "Percent Change in PMN Adhesion to TNF Activated ECs", "setting": "10^-7 M, donor 323, peptide fresh, or 4° for 2 wks", "result": "+45%"},
      {"measurement": "Percent Change in PMN Adhesion to TNF Activated ECs", "setting": "10^-7 M, donor 593, peptide fresh, or 4° for 2 wks", "result": "+14%"},
      {"measurement": "Average % Change of PMN Adhesion to TNF Activated ECs", "setting": "10^-8 M", "result": -12, "unit": "%"},
      {"measurement": "Percent Change in PMN Adhesion to TNF Activated ECs", "setting": "10^-8 M, donor 178, peptide fresh", "result": "+2%"},
      {"measurement": "effect of freezing and thawing the peptide on its activity in the adhesion assay", "setting": "PMNs from donors 100 and 272", "result": "does not significantly effect its activity"}
    ]}
  ]
}
